Source: Sander's compilation of Henry's law constants
Values joined by “and” are separate entries in the source; they are usually repeats but may differ in a detail not shown here. Identical values can stand only once.

Assay: Henry solubility constant Hcp at 298.15 K (mol/(m3 Pa))
[1] = reference: Ömür-Özbek and Dietrich (2005)
[2] = reference: Buttery et al. (1965)
[3] = reference: Butler et al. (1935)
[4] = reference: Snider and Dawson (1985)
[5] = reference: Warner et al. (1980)
[6] = reference: Murphy et al. (1983a)
[7] = reference: Fenclová et al. (2010)
[8] = reference: Dohnal and Fenclová (1995)
[9] = reference: Xu and Kropscott (2014)
[10] = reference: Charles and Destaillats (2005)
[11] = reference: Christie and Crisp (1967)
[12] = reference: Crovetto et al. (1982)
[13] = reference: Krause and Benson (1989)
[14] = reference: Morrison and Johnstone (1954)
[15] = reference: von Antropoff (1910)
[16] = reference: Jantunen and Bidleman (2006)

CCC=CCCC=CC=O [trans-2,cis-6-nonadienal]
Henry solubility constant Hcp [1]: 0.082

C[C@@H]1CCC[C@]2(C)CCCC[C@@]12O [geosmin]
Henry solubility constant Hcp [1]: 0.081

ClC1(Cl)C2(Cl)C3(Cl)C4(Cl)C(Cl)(Cl)C5(Cl)C3(Cl)C1(Cl)C5(Cl)C24Cl (configuration not stated) [mirex]
Henry solubility constant Hcp (reference: Yin and Hassett (1986)): 0.012

CCC(=O)OC [methyl propanoate]
Henry solubility constant Hcp (reference: Ioffe et al. (1984)): 0.052

CCCCCCCC=O [octanal]
Henry solubility constant Hcp [2]: 0.075

CCC(C)O (configuration not stated) [2-butanol]
Henry solubility constant Hcp [3]: 0.96
Henry solubility constant Hcp [4]: 1.1

ClC=CCCl [1,3-dichloropropene]
Henry solubility constant Hcp [5]: 0.0028

C=CCSCC=C [3,3'-thiobis-1-propene]
Henry solubility constant Hcp (reference: Lindinger et al. (1998)): 0.0041

Clc1ccc(-c2cc(Cl)c(Cl)c(Cl)c2Cl)c(Cl)c1 [2,2',3,4,4',5-hexachlorobiphenyl]
Henry solubility constant Hcp [6]: 0.021

CC12CCC(CC1)C(C)(C)O2 [1,3,3-trimethyl-2-oxabicyclo[2.2.2]octane]
Henry solubility constant Hcp (reference: Amoore and Buttery (1978)): 0.12
Henry solubility constant Hcp (reference: Kish et al. (2013)): 0.059

Clc1cccc(-c2ccc(Cl)c(Cl)c2Cl)c1Cl [2,2',3,3',4-pentachlorobiphenyl]
Henry solubility constant Hcp [6]: 0.049

O=C(O)C(F)(F)C(F)(F)C(F)(F)C(F)(F)C(F)(F)C(F)(F)C(F)(F)F [pentadecafluorooctanoic acid]
Henry solubility constant Hcp (reference: Kutsuna and Hori (2008b)): 0.049
Henry solubility constant Hcp (reference: Kwan (2001)): 2.8
Henry solubility constant Hcp (reference: Li et al. (2007)): 0.4

CCCCCC(=O)O [hexanoic acid]
Henry solubility constant Hcp (reference: Khan and Brimblecombe (1992)): 13
Henry solubility constant Hcp (reference: Khan et al. (1995)): 13
Henry solubility constant Hcp (reference: Kim and Kim (2016)): 9.9
Henry solubility constant Hcp (reference: von Hartungen et al. (2004)): 7.5

ClC1=C(Cl)C(Cl)(Cl)C(Cl)=C1Cl [hexachlorocyclopentadiene]
Henry solubility constant Hcp [5]: 0.0006
Henry solubility constant Hcp (reference: Wolfe et al. (1982)): 0.00037

CC1(C)[C@@H]2CC[C@@]1(C)[C@](C)(O)C2 [2-methylisoborneol]
Henry solubility constant Hcp [1]: 0.089

CCCCCO [1-pentanol]
Henry solubility constant Hcp [3]: 0.78
Henry solubility constant Hcp (reference: Gupta et al. (2000)): 0.95
Henry solubility constant Hcp (reference: Lei et al. (2007)): 0.75
Henry solubility constant Hcp (reference: Shunthirasingham et al. (2013)): 0.81

FCC(F)(F)F [1,1,1,2-tetrafluoroethane]
Henry solubility constant Hcp (reference: Chang and Criddle (1995)): 0.00019
Henry solubility constant Hcp (reference: Maaßen (1995)): 0.00016
Henry solubility constant Hcp (reference: Reichl (1995)): 0.00016
Henry solubility constant Hcp (reference: Zheng et al. (1997)): 0.00016

CCO [ethanol]
Henry solubility constant Hcp (reference: Burnett (1963)): 2.1
Henry solubility constant Hcp [3]: 1.9
Henry solubility constant Hcp (reference: Gupta et al. (2000)): 1.8
Henry solubility constant Hcp (reference: Harger et al. (1950)): 1.9
Henry solubility constant Hcp (reference: Jones (1983)): 1.9
Henry solubility constant Hcp (reference: Park et al. (1987)): 1.9
Henry solubility constant Hcp (reference: Pividal et al. (1992)): 3.1
Henry solubility constant Hcp (reference: Richon et al. (1985)): 2
Henry solubility constant Hcp (reference: Rohrschneider (1973)): 2.3
Henry solubility constant Hcp [4]: 1.9
Henry solubility constant Hcp (reference: Straver and de Loos (2005)): 1.9
Henry solubility constant Hcp (reference: Ueberfeld et al. (2001)): 1.1
Henry solubility constant Hcp (reference: Vitenberg and Dobryakov (2008)): 1.8
Henry solubility constant Hcp (reference: Willey et al. (2017)): 1.8

C=CC(=C)CCC=C(C)C [7-methyl-3-methylene-1,6-octadiene]
Henry solubility constant Hcp (reference: Fichan et al. (1999)): 0.00087
Henry solubility constant Hcp (reference: Schuhfried et al. (2015)): 0.00036

CCCCCCCCC=O [nonanal]
Henry solubility constant Hcp [2]: 0.071

Clc1ccc(-c2cc(Cl)c(Cl)c(Cl)c2Cl)cc1Cl [2,3,3',4,4',5-hexachlorobiphenyl]
Henry solubility constant Hcp [6]: 0.011

CCC(C)C=O (configuration not stated) [2-methylbutanal]
Henry solubility constant Hcp (reference: Pollien et al. (2003)): 0.023

CCCCCO[N+](=O)[O-] [1-pentyl nitrate]
Henry solubility constant Hcp (reference: Hauff et al. (1998)): 0.0066

COc1ccccc1O [1-hydroxy-2-methoxybenzene]
Henry solubility constant Hcp (reference: McFall et al. (2020)): 8.6
Henry solubility constant Hcp (reference: Sagebiel et al. (1992)): 7.7 and 9.1
Henry solubility constant Hcp (reference: Wieland et al. (2015)): 9

CC(C)C(C)O (configuration not stated) [3-methyl-2-butanol]
Henry solubility constant Hcp [7]: 0.54

CCCCCCO[N+](=O)[O-] [1-hexyl nitrate]
Henry solubility constant Hcp (reference: Hauff et al. (1998)): 0.0076

CCCCS [1-butanethiol]
Henry solubility constant Hcp (reference: Coquelet and Richon (2005)): 0.0015
Henry solubility constant Hcp (reference: Haimi et al. (2006)): 0.0015

Cc1cc(C)cc(O)c1 [1-hydroxy-3,5-dimethylbenzene]
Henry solubility constant Hcp [8]: 16

C[Si](C)(C)O[Si](C)(C)O[Si](C)(C)O[Si](C)(C)C [decamethyltetrasiloxane]
Henry solubility constant Hcp [9]: 1.4e-07

CCCOCCC [dipropyl ether]
Henry solubility constant Hcp (reference: Hartkopf and Karger (1973)): 0.0022

Brc1ccc(Oc2ccc(Br)cc2)cc1 [4,4'-dibromodiphenyl ether]
Henry solubility constant Hcp [10]: 0.073

CCCCNCCCC [dibutylamine]
Henry solubility constant Hcp [11]: 0.11

O=C(O)C(F)(F)C(F)(F)C(F)(F)F [perfluorobutanoic acid]
Henry solubility constant Hcp (reference: Kwan (2001)): 0.81

CC(C)CCO [3-methyl-1-butanol]
Henry solubility constant Hcp (reference: Ammari and Schroen (2019)): 0.67
Henry solubility constant Hcp [7]: 0.82

ClC1=C(Cl)C2(Cl)C3C4OC4C(Cl)C3C1(Cl)C2(Cl)Cl (configuration not stated) [heptachlorepoxide]
Henry solubility constant Hcp [5]: 0.31

Clc1cc(Cl)c(-c2cc(Cl)c(Cl)cc2Cl)cc1Cl [2,2',4,4',5,5'-hexachlorobiphenyl]
Henry solubility constant Hcp [6]: 0.028

ClC1C(Cl)C(Cl)C(Cl)C(Cl)C1Cl (stereo not drawn) [β-1,2,3,4,5,6-hexachlorocyclohexane]
Henry solubility constant Hcp (reference: Sahsuvar et al. (2003)): 28

CCCC(C)O[N+](=O)[O-] (configuration not stated) [2-pentyl nitrate]
Henry solubility constant Hcp (reference: Hauff et al. (1998)): 0.0037

C[Si](C)(C)O [trimethylsilanol]
Henry solubility constant Hcp [9]: 0.07

Clc1cc(Cl)c(Cl)cc1Cl [1,2,4,5-tetrachlorobenzene]
Henry solubility constant Hcp (reference: McPhedran et al. (2013)): 0.018

[Ar] [argon]
Henry solubility constant Hcp (reference: Ashton et al. (1968)): 1.4e-05
Henry solubility constant Hcp (reference: Cosgrove and Walkley (1981)): 1.4e-05
Henry solubility constant Hcp [12]: 1.4e-05
Henry solubility constant Hcp (reference: Friedman (1954)): 1.4e-05
Henry solubility constant Hcp [13]: 1.4e-05
Henry solubility constant Hcp (reference: Lannung (1930)): 1.4e-05
Henry solubility constant Hcp [14]: 1.3e-05
Henry solubility constant Hcp (reference: Murray and Riley (1970)): 1.4e-05
Henry solubility constant Hcp (reference: Park et al. (1982)): 1.4e-05
Henry solubility constant Hcp (reference: Potter II and Clynne (1978)): 1.4e-05
Henry solubility constant Hcp (reference: Rettich et al. (1992)): 1.4e-05
Henry solubility constant Hcp (reference: Shoor et al. (1969)): 1.4e-05
Henry solubility constant Hcp (reference: Winkler (1906)): 1.5e-05
Henry solubility constant Hcp [15]: 1.6e-05

Cc1ccc(C)c(O)c1 [1-hydroxy-2,5-dimethylbenzene]
Henry solubility constant Hcp [8]: 7.5

C/C=C\CCl [(Z)-1-chloro-2-butene]
Henry solubility constant Hcp (reference: Bakierowska and Trzeszczyński (2003)): 0.0012

CCOC(=O)CC [ethyl propanoate]
Henry solubility constant Hcp (reference: Fenclová et al. (2014)): 0.041

Clc1cc2oc3cc(Cl)c(Cl)cc3c2cc1Cl [2,3,7,8-tetrachlorodibenzofuran]
Henry solubility constant Hcp (reference: Friesen et al. (1993)): 0.59

c1ccc(-c2ccccc2)cc1 [biphenyl]
Henry solubility constant Hcp (reference: Mackay et al. (1979)): 0.024

[2H][2H] [deuterium]
Henry solubility constant Hcp (reference: Muccitelli and Wen (1978)): 7.9e-06

N#Cc1c(Cl)c(Cl)c(Cl)c(C#N)c1Cl [2,4,5,6-tetrachloro-1,3-dicyanobenzene]
Henry solubility constant Hcp (reference: Kawamoto and Urano (1989)): 50

O=[N+]([O-])c1ccccc1O [2-nitrophenol]
Henry solubility constant Hcp (reference: Guo and Brimblecombe (2007)): 1.4
Henry solubility constant Hcp (reference: Harrison et al. (2002)): 0.83
Henry solubility constant Hcp (reference: Müller and Heal (2001)): 0.89

ClC1=C(Cl)[C@]2(Cl)[C@@H]3[C@@H](Cl)[C@@H](Cl)C[C@@H]3[C@@]1(Cl)C2(Cl)Cl [cis-chlordane]
Henry solubility constant Hcp [16]: 0.037

Clc1ccc(Cl)c(-c2cc(Cl)c(Cl)c(Cl)c2Cl)c1 [2,2',3,4,5,5'-hexachlorobiphenyl]
Henry solubility constant Hcp [6]: 0.025

Brc1ccc(Oc2cc(Br)c(Br)c(Br)c2Br)cc1 [2,3,4,4',5-pentabromodiphenyl ether]
Henry solubility constant Hcp [10]: 0.88

NCCOCCO [diglycolamine]
Henry solubility constant Hcp (reference: Nguyen (2013)): 6100

[Xe] [xenon]
Henry solubility constant Hcp [12]: 4.2e-05
Henry solubility constant Hcp [13]: 4.3e-05
Henry solubility constant Hcp [14]: 4.2e-05
Henry solubility constant Hcp [15]: 4.4e-05

C=CC [propene]
Henry solubility constant Hcp (reference: Maaßen (1995)): 5.4e-05
Henry solubility constant Hcp (reference: Reichl (1995)): 5.4e-05

ClC(Cl)=C(c1ccc(Cl)cc1)c1ccc(Cl)cc1 [1,1-dichloro-2,2-bis-(4-chlorophenyl)-ethene]
Henry solubility constant Hcp [16]: 0.029

CCC(C)N (configuration not stated) [2-butanamine]
Henry solubility constant Hcp (reference: Kish et al. (2013)): 0.4

COC(=O)CC(=O)OC [propanedioic acid, dimethyl ester]
Henry solubility constant Hcp (reference: Katrib et al. (2003)): 38

Cc1cccc(C=O)c1 [3-methylbenzaldehyde]
Henry solubility constant Hcp (reference: Wu et al. (2022b)): 0.3

CCN [ethanamine]
Henry solubility constant Hcp (reference: Butler and Ramchandani (1935)): 0.99
Henry solubility constant Hcp [11]: 0.8
